Consider 32 compounds from patent US10961200B2, “Small molecule inhibitors of lactate dehydrogenase and methods of use thereof” (THE UNITED STATES OF AMERICA, AS REPRESENTED BY THE …, priority 2014, dated 2021).

The structures appear in SMILES notation. Read-outs that look alike come from different tables or passages of the source.

The subject of one test is MiaPaCa2 cells. The test can be described thus: cell-based HT lactate assay, colorimetric/fluorometric detection (inhibition of lactate production). To be noted: class symbols, 0 to 3 pluses. On the procedure:
Cell-based HT Lactate assay is a miniaturized Biovision Lactate Colorimetric/Fluorometric Assay Kit (Cat #K607-100). The assay is roughly a 3.5 hour assay run in a 1536 plate format. Cell number optimization should be run for each cell line to achieve an optimal number in which lactate production equals roughly 90% of the standard curve range. Cell number per well optimization has been performed with the following cell lines: MiaPaCa2—500 cells/well, SNU398—500 cells/well, and P493—500 cells/well.
The lactate activity in Table 8 is represented by 0 to 3 pluses as follows: +++<1 μM; ++1-10 μM; +10-57 μM; and −>57 μM.

For a further test, the target named is Human LDHA (Homo sapiens (Human), UniProt P00338). The test can be described thus: human LDHA primary biochemical assay (resazurin/diaphorase coupled, fluorescence). From the text: Test compounds were placed in a Greiner Bio-One (Monroe, N.C.) 1536-well black solid bottom assay plate. 200 millimolar (mM) Tris HCl, pH 7.4, 100 micromolar […] EDTA and 0.01% TWEEN-20™, final concentration, was used as the assay buffer. The LDHA reagent was 2 nanomolar (nM) Human LDHA (Meridian Life Science, Inc., Memphis, Tenn.), final concentration, in assay buffer.

[1] abbreviates: LDHA inhibitory activity, activity level based on IC50 (Table 7).
Setting [2] is: read-out: Inhibitory activity IC50.
The mark [3] stands for this setting: LDHA inhibitory activity, assay of Example 1, activity level classes.

On to `NS(=O)(=O)c1ccc(Cc2c(-c3ccc(F)c(OCC4CCCO4)c3)nn(-c3nc(C(=O)O)cs3)c2CC2CC2)cc1F` (stereo not shown) [Compound 469, 2-(5-(cyclopropylmethyl)-3-(4-fluoro-3-((tetrahydrofuran-2-yl)methoxy)phenyl)-4-(3-fluoro-4-sulfamoylbenzyl)-1H-pyrazol-1-yl)thiazole-4-carboxylic acid], for which the IC50 is 1000 to 10000 nM with MiaPaCa2 cells (Homo sapiens, MIA PaCa-2) and less than 100 nM on Human LDHA (setting [1]).

Take `NS(=O)(=O)c1ccc(Cc2c(-c3cccc(Oc4ccccc4)c3)nn(-c3nc(C(=O)O)cs3)c2C2CC2)cc1` [Compound 502, 2-(5-cyclopropyl-3-(3-phenoxyphenyl)-4-(4-sulfamoylbenzyl)-1H-pyrazol-1-yl)thiazole-4-carboxylic acid]: the IC50 was 1000 to 10000 nM in the test on MiaPaCa2 cells (Homo sapiens, MIA PaCa-2) and less than 100 nM on Human LDHA (setting [1]).

For `NS(=O)(=O)c1ccc(Cc2cn(-c3cc(C(=O)O)cs3)nc2-c2ccccc2)cc1` [Compound 213, 5-(3-phenyl-4-(4-sulfamoylbenzyl)-1H-pyrazol-1-yl)thiophene-3-carboxylic acid], the IC50 in the test with MiaPaCa2 cells (Homo sapiens, MIA PaCa-2) was greater than 57000 nM; on Human LDHA (setting [2]), 1000 to 57000 nM.

For `NS(=O)(=O)c1ccc(Cc2c(-c3ccc(F)c(Br)c3)nn(-c3nc(C(=O)O)cs3)c2CC2CC2)cc1` [Compound 296], the results for the IC50 in the test with MiaPaCa2 cells and on Human LDHA (setting [3]) were 1000 to 10000 nM and less than 100 nM, respectively.

As for `N[S+](=O)([O-])c1ccc(Cc2c(-c3ccc(F)c(-c4ccccc4)c3)nn(-c3nc(C(=O)O)cs3)c2CC2CC2)cc1F` [Compound 367], the IC50 is less than 1000 nM in the test on MiaPaCa2 cells and less than 100 nM at Human LDHA (setting [1]).

With `COc1cccc(-c2cc(F)cc(-c3nn(-c4nc(C(=O)O)cs4)c(CC4CC4)c3Cc3ccc(S(N)(=O)=O)cc3)c2)c1` [Compound 478, 2-(5-(cyclopropylmethyl)-3-(5-fluoro-3′-methoxy-[1,1′-biphenyl]-3-yl)-4-(4-sulfamoylbenzyl)-1H-pyrazol-1-yl)thiazole-4-carboxylic Acid], the IC50 is 1000 to 10000 nM in the test on MiaPaCa2 cells (Homo sapiens, MIA PaCa-2) and less than 100 nM at Human LDHA (setting [1]).

Consider `Cc1ccc(-c2nn(-c3nc(C(=O)O)cs3)c(CC3CC3)c2Cc2ccc(S(N)(=O)=O)cc2)cc1OC1CCCC1` [Compound 467, 2-(3-(3-(cyclopentyloxy)-4-methylphenyl)-5-(cyclopropylmethyl)-4-(4-sulfamoylbenzyl)-1H-pyrazol-1-yl)thiazole-4-carboxylic acid], for which the IC50 in the test with MiaPaCa2 cells (Homo sapiens, MIA PaCa-2) was less than 1000 nM; on Human LDHA (setting [1]), less than 100 nM.

As for `NS(=O)(=O)c1ccc(Cc2c(-c3ccc(F)c(C4CC4)c3)nn(-c3nc(C(=O)O)cs3)c2CC2CC2)cc1Cl` [Compound 406], the concentration for half-maximal inhibition (IC50) in the test on MiaPaCa2 cells is 1000 to 10000 nM; against Human LDHA (setting [1]) it was less than 100 nM.

For the compound `NS(=O)(=O)c1ccc(Cc2c(-c3ccc(F)c(Oc4ccccc4)c3)nn(-c3nc(C(=O)O)cs3)c2CC2CC2)cc1` [Compound 508, 2-(5-(cyclopropylmethyl)-3-(4-fluoro-3-phenoxyphenyl)-4-(4-sulfamoylbenzyl)-1H-pyrazol-1-yl)thiazole-4-carboxylic Acid], the IC50 in the test with MiaPaCa2 cells (Homo sapiens, MIA PaCa-2) is 1000 to 10000 nM; against Human LDHA (setting [1]), less than 100 nM.

As for `CN1CCC(c2cc(-c3nn(-c4nc(C(=O)O)cs4)c(CC4CC4)c3Cc3ccc([S+](N)(=O)[O-])c(F)c3)ccc2F)CC1` [Compound 390], the results for the IC50 in the test on MiaPaCa2 cells and against Human LDHA (setting [1]) were greater than 57000 nM and less than 100 nM, respectively.

Regarding `NS(=O)(=O)c1ccc(Cc2cn(-c3nc(C(=O)O)cs3)nc2-c2ccc(F)c(-c3cccc(F)c3)c2)cc1` [Compound 458, 2-(3-(3′,6-difluoro-[1,1′-biphenyl]-3-yl)-4-(4-sulfamoylbenzyl)-1H-pyrazol-1-yl)thiazole-4-carboxylic acid], the IC50 with MiaPaCa2 cells (Homo sapiens, MIA PaCa-2) was 1000 to 10000 nM; on Human LDHA (setting [1]), less than 100 nM.

Regarding `NS(=O)(=O)c1ccc(Cc2c(-c3cccc(-c4ccccc4)c3)nn(-c3nc(C(=O)O)cs3)c2CC2CC2)cc1F` [Compound 331], the IC50 is less than 1000 nM in the test on MiaPaCa2 cells and less than 100 nM against Human LDHA (setting [3]).

As to `NS(=O)(=O)c1ccc(Cc2c(-c3ccc(F)c(C(F)(F)F)c3)nn(-c3nc(C(=O)O)cs3)c2CC2CC2)cc1F` [Compound 542, 2-(5-(cyclopropylmethyl)-3-(4-fluoro-3-(trifluoromethyl)phenyl)-4-(3-fluoro-4-sulfamoylbenzyl)-1H-pyrazol-1-yl)thiazole-4-carboxylic acid], the IC50 in the test with MiaPaCa2 cells (Homo sapiens, MIA PaCa-2) was 1000 to 10000 nM; against Human LDHA (setting [1]) it was less than 100 nM.

With `N[S+](=O)([O-])c1ccc(Cc2c(-c3ccc(F)c(C#CC4CCCC4)c3)nn(-c3nc(C(=O)O)cs3)c2CC2CC2)cc1` [Compound 430], the IC50 in the test on MiaPaCa2 cells was less than 1000 nM; against Human LDHA (setting [1]), less than 100 nM.

For `NS(=O)(=O)c1ccc(Cc2c(-c3cccc(N4CCC(F)(F)C4)c3)nn(-c3nc(C(=O)O)cs3)c2CC2CC2)cc1F` [Compound 395], the IC50 was in the range of 10000 to 57000 nM with MiaPaCa2 cells and 1000 to 57000 nM at Human LDHA (setting [1]).

Regarding `NS(=O)(=O)c1ccc(Cc2c(-c3cc(OC4CCCC4)ccc3F)nn(-c3nc(C(=O)O)cs3)c2CC2CC2)cc1` [Compound 468, 2-(3-(5-(cyclopentyloxy)-2-fluorophenyl)-5-(cyclopropylmethyl)-4-(4-sulfamoylbenzyl)-1H-pyrazol-1-yl)thiazole-4-carboxylic acid], the IC50 in the test on MiaPaCa2 cells (Homo sapiens, MIA PaCa-2) lay within 1000 to 10000 nM; against Human LDHA (setting [1]), 100 to 1000 nM.

Take `NS(=O)(=O)c1ccc(Cc2c(-c3cccc(-c4ccccc4)c3)nn(-c3nc(C(=O)O)cs3)c2CCC2CC2)cc1` [Compound 203, 2-(3-([1,1′-biphenyl]-3-yl)-5-(2-cyclopropylethyl)-4-(4-sulfamoylbenzyl)-1H-pyrazol-1-yl)thiazole-4-carboxylic acid]: the IC50 is less than 1000 nM in the test with MiaPaCa2 cells (Homo sapiens, MIA PaCa-2) and less than 100 nM against Human LDHA (setting [3]).

In the case of `COc1cccc(-c2cc(-c3nn(-c4nc(C(=O)O)cs4)c(C4CC4)c3Cc3ccc(S(N)(=O)=O)c(F)c3)ccc2F)c1` [Compound 252], the IC50 is 1000 to 10000 nM with MiaPaCa2 cells and less than 100 nM at Human LDHA (setting [3]).

Turning to `NS(=O)(=O)c1ccc(Cc2c(-c3ccc(F)c(C#CC4(F)COC4)c3)nn(-c3nc(C(=O)O)cs3)c2CC2CC2)cc1F` [Compound 414], the IC50 in the test with MiaPaCa2 cells is 1000 to 10000 nM; at Human LDHA (setting [1]), less than 100 nM.

On to `N[S+](=O)([O-])c1ccc(Cc2c(-c3ccc(F)c(C4=CCNCC4)c3)nn(-c3nc(C(=O)O)cs3)c2CC2CC2)cc1F` [Compound 369], for which the IC50 was 10000 to 57000 nM in the test on MiaPaCa2 cells and less than 100 nM on Human LDHA (setting [1]).

As for `NS(=O)(=O)c1ccc(Cc2c(-c3ccc(F)c(C#CC4(O)COC4)c3)nn(-c3nc(C(=O)O)cs3)c2CC2CC2)cc1F` [Compound 415], the half-maximal inhibitory concentration (IC50) in the test on MiaPaCa2 cells was 1000 to 10000 nM; at Human LDHA (setting [1]), less than 100 nM.

In the case of `NS(=O)(=O)c1ccc(Cc2c(-c3ccc(F)c(C#CC4(F)CCCC4)c3)nn(-c3nc(C(=O)O)cs3)c2CC2CC2)cc1F` [Compound 436], the IC50 was less than 1000 nM with MiaPaCa2 cells and less than 100 nM at Human LDHA (setting [1]).

`NS(=O)(=O)c1ccc(Cc2c(-c3ccc(F)c(C#CCN4CCOCC4)c3)nn(-c3nc(C(=O)O)cs3)c2CC2CC2)cc1F` [Compound 263]: the IC50 was 10000 to 57000 nM in the test on MiaPaCa2 cells and less than 100 nM against Human LDHA (setting [3]).

Regarding `NS(=O)(=O)c1ccc(Cc2c(-c3ccc(F)c(-c4cccc(F)c4)c3)nn(-c3nc(C(=O)O)cs3)c2C2CC2)cc1F` [Compound 251], the IC50 is 1000 to 10000 nM with MiaPaCa2 cells and less than 100 nM against Human LDHA (setting [3]).

With `NS(=O)(=O)c1ccc(Cc2c(-c3cccc(Oc4ccccc4)c3)nn(-c3nc(C(=O)O)cs3)c2CC2CC2)cc1` [Compound 503, 2-(5-(cyclopropylmethyl)-3-(3-phenoxyphenyl)-4-(4-sulfamoylbenzyl)-1H-pyrazol-1-yl)thiazole-4-carboxylic Acid], the IC50 in the test on MiaPaCa2 cells (Homo sapiens, MIA PaCa-2) was 1000 to 10000 nM; on Human LDHA (setting [1]), less than 100 nM.

Consider `Cc1ccc(-c2cc(-c3nn(-c4nc(C(=O)O)cs4)c(CC4CC4)c3Cc3ccc(S(N)(=O)=O)cc3)ccc2F)cc1` [Compound 284], for which the values for the IC50 in the test on MiaPaCa2 cells and against Human LDHA (setting [3]) were less than 1000 nM and less than 100 nM, respectively.

`NS(=O)(=O)c1cccc(Cc2c(-c3ccc(F)c(-c4cccc(F)c4)c3)nn(-c3nc(C(=O)O)cs3)c2CC2CC2)c1` [Compound 368]: the figures for the IC50 in the test with MiaPaCa2 cells and on Human LDHA (setting [1]) were 10000 to 57000 nM and 1000 to 57000 nM, respectively.

For `Cc1ccc(-c2cc(-c3nn(-c4nc(C(=O)O)cs4)c(CC4CC4)c3Cc3ccc(S(N)(=O)=O)c(F)c3)ccc2F)s1` [Compound 227, 2-(5-(cyclopropylmethyl)-3-(4-fluoro-3-(5-methylthiophen-2-yl)phenyl)-4-(3-fluoro-4-sulfamoylbenzyl)-1H-pyrazol-1-yl)thiazole-4-carboxylic acid], the IC50 is less than 1000 nM in the test with MiaPaCa2 cells (Homo sapiens, MIA PaCa-2) and less than 100 nM on Human LDHA (setting [2]).

As for `NS(=O)(=O)c1ccc(Cc2c(-c3cccc(-c4ccccc4)c3)nn(-c3nc(C(=O)O)cs3)c2CC(F)(F)F)cc1` [Compound 304], the concentration for half-maximal inhibition (IC50) in the test with MiaPaCa2 cells lay in the range of 10000 to 57000 nM; on Human LDHA (setting [3]), 100 to 1000 nM.

In the case of `CCOC(=O)c1csc(-n2nc(-c3cccc(C#CC4CCCC4)c3)c(Cc3ccc(S(N)(=O)=O)c(F)c3)c2CC2CC2)n1` [Compound 428], the IC50 in the test with MiaPaCa2 cells and against Human LDHA (setting [1]) was greater than 57000 nM in each case.

With `NS(=O)(=O)c1ccc(Cc2c(-c3cccc(C4CCCC4)c3)nn(-c3nc(C(=O)O)cs3)c2CC2CC2)cc1` [Compound 372], the IC50 in the test with MiaPaCa2 cells is 1000 to 10000 nM; against Human LDHA (setting [1]), less than 100 nM.

Take `CC(C)c1cc(-c2nn(-c3nc(C(=O)O)cs3)c(CC3CC3)c2Cc2ccc(S(N)(=O)=O)c(F)c2)ccc1F` [Compound 383]: the IC50 was less than 1000 nM in the test on MiaPaCa2 cells and less than 100 nM against Human LDHA (setting [1]).

One may read the IC50 as the concentration at which inhibition is half-maximal.
